Measurements as given in US20240140895A1, “NOVEL AROMATIC MOLECULES” (XENIOPRO GmbH, priority 2018, published 2024).

What was measured:
Type in all cases: cell-based
[1] = test system: C2C12 cells (murine myoblast cells); test: Proliferation assay (alamarBlue) with C2C12 cells; details: Mus musculus, compound at 20 μM, read-out: Activity Range: weighted arithmetic mean (AVEw) of normalized fluorescence intensity, relative to DMSO basis level 1.0
From the text: (§1) The antiproliferative activities of compounds falling under formula (Ia), (Tb) and (Ic), respectively, were investigated on cells or cell lines originating from a disorder of the haematopoietic system, including the myeloid cell compartment and the lymphoid cell compartment (T-cells and B-cells), the neuroendocrine system, the cervix, the breast, the ovaries, the lung, the gastrointestinal tract, and the mucosal epithelium, as well as from the skin epithelium and from the muscle. To this end, HL-60 cells, NB-4 cells, HH cells, RPMI-8402 cells, TANOUE cells, TT cells, HeLa cells, MDA-MB-231 cells, FU-OV-1 cells, LOU-NH91 cells, 23132/87 cells, CAL-27 cells, BHY cells, SCC-25 cells, A-431 cells, human primary epidermal keratinocytes (HPEK), and C2C12 cells were seeded into 96-well plates suitable for fluorescence assays (CORNING #3598) at following initial cell numbers: 1000 cells per well for HL-60; 1000 cells per well for NB-4; 5000 cells per well for HH; 5000 cells per well for RPMI-8402; 1500 cells per well for TANOUE; 9000 cells per well for TT; 2000 cells per well for HeLa; 3000 cells per well for MDA-MB-231; 3000 cells per well for FU-OV-1; 4000 cells per well for LOU-NH91; 2000 cells per well for 23132/87; 2000 cells per well for CAL-27; 1500 cells per well for BHY; 1500 cells per well for SCC-25; 700 cells per well for A-431; 1000 cells per well for HPEK; 500 cells per well for C2-C12. The cells were treated with compounds at indicated final concentrations (diluted from the 1000× stock-solutions in DMSO to a final DMSO concentration of 0.1% v/v in H2O (Water For Injection, WFI, Fisherscientific #10378939)) or with the empty carrier DMSO at 0.1% v/v as control for 5 days. At day 5 after starting the treatments the cells were subjected to the alamarBlue® Proliferation Assay (Bio-Rad Serotec GmbH, BUF012B) according to the protocol of the manufacturer. The readout was taken with a multi-well plate-reader in the fluorescence mode with applying a filter for excitation at 560 nm (band width 10 nm) and for emission at 590 nm (band width 10 nm). Control treatments for growth inhibition with commercial compounds such as Methotrexate (MTREX) and Resveratrol (RES) were included on every plate. Some of the test compounds of the present invention were obtained and applied as their salts. According cases are indicated in the column “Specification” in Table 30 to Table 62 and by their sum formula in Table 63.
(§2) The assays were performed in duplicate or more replicates of independent single experiments each containing a six-fold replicate for every condition. For every individual plate, the measured fluorescence intensity values of the conditions with compound treatment were normalized against the corresponding equally weighted arithmetic mean of the fluorescence intensity values of the six DMSO treated control wells in order to obtain the relative values to a baseline level of 1.0.
(§3) Two independent outlier analyses were performed according to the methods by Peirce and Chauvenet (Ross, Journal of Engineering Technology 2003, 1-12). Outliers confirmed by at least one of the methods were excluded from the calculations but not more than one value out of six per compound within a single experiment. The weighted arithmetic mean (here abbreviated as AVEw) for each compound was calculated from the normalized values over all independent replicates of the single experiments comprising the six replicates each. The corresponding standard deviation for the weighted arithmetic mean was calculated according to the method described by Bronstein et al. (Bronstein, Semendjajew, Musiol, Muhlig, Taschenbuch der Mathematik, 5th edition 2001 (German), publisher: Verlag Harri Deutsch, Frankfurt am Main and Thun) and was combined with the Gauβ′ error propagation associated with the performed calculation for the normalization. The resulting standard deviation is herein referred to as “combined standard deviation”. […]

[2] = test system: HH cells (human cutaneous T-cell lymphoma cells); test: Proliferation assay (alamarBlue) with HH cells; details: Table 34, compound at 20 μM, read-out: Activity Range (AVEw, weighted arithmetic mean of normalized fluorescence intensity, DMSO = 1.0)
From the text: as §1, §2, §3

[3] = test system: RPMI-8402 cells (human T cell acute lymphoblastic leukemia cells); test: Proliferation assay (alamarBlue) with RPMI-8402 cells
From the text: as §1, §2, §3

[4] = test system: NB-4 cells (human acute promyelocytic leukemia cells); test: Proliferation assay (alamarBlue) with NB-4 cells
From the text: as §1, §2, §3

[5] = test system: TANOUE cells (human B cell leukemia cells); test: Proliferation assay (alamarBlue) with TANOUE cells
From the text: as §1, §2, §3

[6] = test system: LOU-NH91 cells (human lung squamous cell carcinoma cells); test: Proliferation assay (alamarBlue) with LOU-NH91 cells
From the text: (§4) The antiproliferative activities of compounds falling under formula (Ia), (Tb) and (Ic), respectively, were investigated on cells or cell lines originating from a disorder of the haematopoietic system, including the myeloid cell compartment and the lymphoid cell compartment (T-cells and B-cells), the neuroendocrine system, the cervix, the breast, the ovaries, the lung, the gastrointestinal tract, and the mucosal epithelium, as well as from the skin epithelium and from the muscle. To this end, HL-60 cells, NB-4 cells, HH cells, RPMI-8402 cells, TANOUE cells, TT cells, HeLa cells, MDA-MB-231 cells, FU-OV-1 cells, LOU-NH91 cells, 23132/87 cells, CAL-27 cells, BHY cells, SCC-25 cells, A-431 cells, human primary epidermal keratinocytes (HPEK), and C2C12 cells were seeded into 96-well plates suitable for fluorescence assays (CORNING #3598) at following initial cell numbers: 1000 cells per well for HL-60; 1000 cells per well for NB-4; 5000 cells per well for HH; 5000 cells per well for RPMI-8402; 1500 cells per well for TANOUE; 9000 cells per well for TT; 2000 cells per well for HeLa; 3000 cells per well for MDA-MB-231; 3000 cells per well for FU-OV-1; 4000 cells per well for LOU-NH91; 2000 cells per well for 23132/87; 2000 cells per well for CAL-27; 1500 cells per well for BHY; 1500 cells per well for SCC-25; 700 cells per well for A-431; 1000 cells per well for HPEK; 500 cells per well for C2-C12. […] The readout was taken with a multi-well plate-reader in the fluorescence mode with applying a filter for excitation at 560 nm (band width 10 nm) and for emission at 590 nm (band width 10 nm). […]
as §2, with “1.0. […]” for “1.0.”

[7] = test system: FU-OV-1 cells (human ovarian carcinoma cells); test: Proliferation assay (alamarBlue) with FU-OV-1 cells
From the text: as §4
as §2, with “1.0. […]” for “1.0.”

[8] = test system: A-431 cells (human epidermoid squamous cell carcinoma cells); test: Proliferation assay (alamarBlue) with A-431 cells
From the text: as §1, §2, §3

[9] = test system: MDA-MB-231 cells (human breast carcinoma cells); test: Proliferation assay (alamarBlue) with MDA-MB-231 cells
From the text: as §1, §2, §3

[10] = test system: 23132/87 cells (human gastric adenocarcinoma cells); test: Proliferation assay (alamarBlue) with 23132/87 cells; details: read-out: Activity Range: weighted arithmetic mean (AVEw) of normalized fluorescence intensity relative to DMSO basis level 1.0
From the text: as §1, §2, §3

[11] = test system: HL-60 cells (human acute myeloid leukemia cells); test: Proliferation assay (alamarBlue) with HL-60 cells
From the text: as §1, §2, §3

[12] = Homo sapiens, read-out: Activity Range: weighted arithmetic mean (AVEw) of normalized fluorescence intensity relative to DMSO basis level 1.0

Structure (SMILES): Oc1ccc(C=Cc2cc(O)cc(O)c2)cc1 [RES, resveratrol, reference compound]
- activity at 20 µM [1]: 80%
- activity at 20 µM [2]: 60 ± 10%
- Activity Range: weighted arithmetic mean (AVEw) of normalized fluorescence intensity relative to DMSO basis level 1.0 ([3]; 20 μM): 0.6 ± 0.0
- activity at 20 µM [3, 12]: 60%
- activity at 20 µM ([4]; Homo sapiens, Table 32, compound at 20 μM, read-out: Activity Range (AVEw, weighted arithmetic mean of normalized fluorescence intensity, DMSO = 1.0)): 10%
- Activity Range (AVEw, weighted arithmetic mean of normalized fluorescence intensity, DMSO = 1.0) ([4]; Table 33, compound at 20 μM): 0.1 ± 0.0
- Activity Range: weighted arithmetic mean (AVEw) of normalized fluorescence intensity relative to DMSO basis level 1.0 ([5]; 20 μM): 0.1 ± 0.0
- activity at 20 µM ([5]; Homo sapiens, B-cell, read-out: Activity Range: weighted arithmetic mean (AVEw) of normalized fluorescence intensity relative to DMSO basis level 1.0): 10%
- Activity Range: weighted arithmetic mean (AVEw) of normalized fluorescence intensity relative to DMSO basis level 1.0 ([6]; 20 μM): 0.9 ± 0.1
- Activity Range: weighted arithmetic mean (AVEw) of normalized fluorescence intensity relative to DMSO basis level 1.0 ([6]; control at 40 μM): 0.7 ± 0.0
- Activity Range: weighted arithmetic mean (AVEw) of normalized fluorescence intensity relative to DMSO basis level 1.0 ([7]; 20 μM): 0.7 ± 0.0
- Activity Range: weighted arithmetic mean (AVEw) of normalized fluorescence intensity relative to DMSO basis level 1.0 ([7]; control at 40 μM): 0.4 ± 0.0
- activity at 20 µM ([8]; Homo sapiens, 20 μM, read-out: Activity Range: weighted arithmetic mean (AVEw) of normalized fluorescence intensity relative to DMSO basis level 1.0): 60%
- Activity Range: weighted arithmetic mean (AVEw) of normalized fluorescence intensity relative to DMSO basis level 1.0 ([8]; compound at 20 μM): 0.6 ± 0.0
- Activity Range: weighted arithmetic mean (AVEw) of normalized fluorescence intensity relative to DMSO basis level 1.0 ([8]; control at 40 μM): 0.2 ± 0.0
- Activity Range: weighted arithmetic mean (AVEw) of normalized fluorescence intensity relative to DMSO basis level 1.0 ([9]; 20 μM): 0.6 ± 0.0
- activity at 20 µM [9, 12]: 60%
- activity at 20 µM [10]: 50 ± 10%
- activity at 20 µM ([11]; Homo sapiens, Table 30, compound at 20 μM, read-out: Activity Range (AVEw, weighted arithmetic mean of normalized fluorescence intensity, DMSO = 1.0)): 40 ± 10%
- Activity Range (AVEw, weighted arithmetic mean of normalized fluorescence intensity, DMSO = 1.0) ([11]; Table 31, compound at 20 μM): 0.4 ± 0.1
